Reference: ChEMBL document CHEMBL2440068, “Synthesis and evaluation of N-alkyl-S-[3-(piperidin-1-yl)propyl]isothioureas: high affinity and human/rat species-selective histamine H(3) receptor antagonists” (Bioorg Med Chem Lett, 2013)
Active and inactive are the calls of the source. No cut-off for these calls is given here.

Legend:
[1] = molecular target: Histamine H4 receptor (Homo sapiens) (UniProt Q9H3N8); assay: Antagonist activity at human histamine H4 receptor expressed in CHO cells assessed inhibition of forskolin/histamine-induced cAMP accumulation at 1 uM after 1.5 hrs by TR-FRET immunoassay; assay type: functional, cell-based
[2] = molecular target: Histamine H4 receptor (Homo sapiens) (UniProt Q9H3N8); assay: Agonist activity at human histamine H4 receptor expressed in CHO cells assessed increase of forskolin-induced cAMP accumulation at 1 uM after 1.5 hrs by TR-FRET immunoassay; assay type: functional, cell-based
Histamine H3 receptor = Histamine H3 receptor (Homo sapiens, UniProt Q9Y5N1); assay: Antagonist activity at human histamine H3 receptor expressed in CHO cells assessed as inhibition of forskolin/R-alpha-methylhistamine-induced cAMP accumulation after 1.5 hrs by TR-FRET immunoassay; assay type: functional, cell-based; conditions: for Kb: read-out: pA2 (converted)
Rattus norvegicus = assay: Increase of histamine release in Wistar rat hypothalamus at 10 uM administered through dialysis membrane by HPLC-fluorometric based microdialysis relative to control; assay type: functional

Sequence of Histamine H3 receptor (Q9Y5N1 whole entry): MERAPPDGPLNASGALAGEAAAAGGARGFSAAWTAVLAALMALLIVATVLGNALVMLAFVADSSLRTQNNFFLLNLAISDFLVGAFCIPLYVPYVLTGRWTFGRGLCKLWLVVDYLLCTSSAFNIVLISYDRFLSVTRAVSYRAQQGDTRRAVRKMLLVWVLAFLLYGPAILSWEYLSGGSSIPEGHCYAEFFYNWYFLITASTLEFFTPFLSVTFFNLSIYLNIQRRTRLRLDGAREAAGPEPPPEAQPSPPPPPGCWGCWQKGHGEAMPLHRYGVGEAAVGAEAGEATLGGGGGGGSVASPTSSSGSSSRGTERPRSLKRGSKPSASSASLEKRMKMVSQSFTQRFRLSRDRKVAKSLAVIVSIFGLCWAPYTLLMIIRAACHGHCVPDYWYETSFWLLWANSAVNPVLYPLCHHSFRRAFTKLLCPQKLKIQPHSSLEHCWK

inhibition [1] | Activity [2] | IC50 (Histamine H3 receptor) | Kb (Histamine H3 receptor) | Structure (SMILES) | Activity (Rattus norvegicus)
inactive | inactive | 6.31 nM | 2 nM | N=C(NCCCCN1CCCCC1)SCCCN1CCCCC1 | –
– | – | 1260 nM | – | CN1CCN(CCCSC(=N)NCc2ccc(Cl)cc2)CC1 | –
– | – | 15.8 nM | 12.6 nM | N=C(NCCCCc1ccc(C(F)(F)F)cc1)SCCCN1CCCCC1 | –
inactive | inactive | 6.31 nM | 2 nM | Cl.N=C(NCCCc1ccc(Cl)cc1)SCCCN1CCCCC1 | 102.2%
inactive | inactive | 2 nM | 2 nM | N#Cc1ccc(CCCCNC(=N)SCCCN2CCCCC2)cc1 | –
inactive | inactive | 7.94 nM | 39.8 nM | Cl.N=C(NCCc1ccc(Cl)cc1)SCCCN1CCCCC1 | 145.8%
– | – | 316 nM | – | N=C(NCCc1ccc(Cl)cc1)SCCCN1CCOCC1 | –
– | – | 79.4 nM | 39.8 nM | Cl.N=C(NCc1ccc(Cl)cc1)SCCCN1CCCCC1 | 134.4%
– | – | 31.6 nM | 10 nM | Cl.N=C(NCCCCCc1ccccc1)SCCCN1CCCCC1 | 90.5%
– | – | 316 nM | – | O=C(CCCCc1ccc(Cl)cc1)NCCCN1CCCCC1 | –
– | – | 20 nM | – | N=C(NCc1ccc(Cl)cc1)SCCCN1CCCC1 | –
inactive | inactive | 6.31 nM | 0.251 nM | Cl.N=C(NCCCCc1ccc(Cl)cc1)SCCCN1CCCCC1 | 101.2%
– | – | 126 nM | – | O=C(CCCN1CCCCC1)NCCCCc1ccc(Cl)cc1 | –
– | – | 1580 nM | – | N=C(NCc1ccc(Cl)cc1)SCCCN1CCOCC1 | –
– | – | – | – | N=C(NCc1ccc(Cl)cc1)SCCCc1c[nH]cn1 [CLOBENPROPIT] | 145.6%
– | – | 31.6 nM | – | N=C(NCCc1ccc(Cl)cc1)SCCCN1CCCC1 | –
– | – | 6310 nM | – | N=C(NCc1ccc(Cl)cc1)SCCCN1CCNCC1 | –
– | – | 126 nM | – | O=C(CCCN1CCCCC1)NCCCCc1ccc(C(F)(F)F)cc1 | –
